# Results as given in US20050249674A1, “Aerosol composition” (University College Cardiff Consultants Limited, priority 1998, published 2005).
# Experiment: visual assessment of suspension: ease of dispersion on hand held shaking, extent of aggregation, suspension quality
# Assay type: physicochemical
# Conditions: in HFA-134a or HFA-227
# Description: Each suspension was assessed visually for its ease of dispersion on hand held shaking, its extent of aggregation and the quality of the suspension.
# Ease of dispersion was scored on a scale of good (g), medium (m) and poor (p).
# The extent of aggregation was scored on a scale of low, medium and high. Additionally the type of aggregation, if present, was recorded.
# The quality of the suspension was scored on a scale of poor (p), poor-fair (p/f), fair (f), fair-good (f/g) and good (g).
# The suspension properties measured by visual inspection were ease of dispersion, extent of aggregation and suspension quality and were scored as for Examples A to Q.
# The resulting suspensions were assessed visually for ease of dispersion, suspension quality and extent of aggregation and scored as above, as set out under Examples A to R. The results are given in Table IV below.
# The suspensions so formed were assessed visually for ease of dispersion and suspension quality and each assessment was scored on a scale of poor (p), poor-fair (p/f), fair (f), fair-good (f/g), good (g).
# The extent of aggregation of each suspension was also assessed visually and in each example was rated as low.
row,SMILES,tendency to cream or sediment in the propellant
1,"CC(C)C[C@H](N)C(=O)O [Leucine, L-leucine]",tendency to cream
2,"OC[C@H]1OC(O)[C@H](O)[C@@H](O)[C@@H]1O (stereo partly drawn) [Glucose, d-glucose anhydrous]",tendency to sediment
